The values below come from PMC9963659, “Novel 2-Thiouracil-5-Sulfonamide Derivatives: Design, Synthesis, Molecular Docking, and Biological Evaluation as Antioxidants with 15-LOX Inhibition” (Molecules, 2023).

One series concerns the target T1, Soybean 15-LOX enzyme (Glycine max, UniProt P08170).
T1 construct: purchased Cayman Chemical 760700
T1 sequence (P08170 1-839): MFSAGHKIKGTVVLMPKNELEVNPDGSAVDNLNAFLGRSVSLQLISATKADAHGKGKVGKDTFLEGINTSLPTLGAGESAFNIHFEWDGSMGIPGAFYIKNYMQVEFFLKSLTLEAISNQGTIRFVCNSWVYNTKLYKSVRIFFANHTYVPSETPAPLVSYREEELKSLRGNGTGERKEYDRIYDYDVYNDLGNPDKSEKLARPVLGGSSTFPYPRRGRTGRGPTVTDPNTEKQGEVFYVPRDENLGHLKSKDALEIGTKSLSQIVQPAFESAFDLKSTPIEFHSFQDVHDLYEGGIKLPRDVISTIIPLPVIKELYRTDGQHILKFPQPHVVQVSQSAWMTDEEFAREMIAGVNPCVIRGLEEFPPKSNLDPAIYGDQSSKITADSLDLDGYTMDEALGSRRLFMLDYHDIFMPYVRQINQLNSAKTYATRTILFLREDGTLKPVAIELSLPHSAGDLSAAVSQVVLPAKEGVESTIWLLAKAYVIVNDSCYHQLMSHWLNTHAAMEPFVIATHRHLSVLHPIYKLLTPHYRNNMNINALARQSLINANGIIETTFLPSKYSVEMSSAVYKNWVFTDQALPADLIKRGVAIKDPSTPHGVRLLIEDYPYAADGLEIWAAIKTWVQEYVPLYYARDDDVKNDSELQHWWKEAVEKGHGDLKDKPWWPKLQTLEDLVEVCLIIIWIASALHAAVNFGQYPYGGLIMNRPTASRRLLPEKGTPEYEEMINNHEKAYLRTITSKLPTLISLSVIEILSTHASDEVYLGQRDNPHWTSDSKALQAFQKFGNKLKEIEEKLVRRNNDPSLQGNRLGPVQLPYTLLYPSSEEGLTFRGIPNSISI
The series is described as follows: In vitro 15-lipoxygenase inhibition (Cayman Lipoxygenase Inhibitor Screening Assay Kit). It counts as biochemical. Particulars: for IC50: Soybean 15-LOX, arachidonic acid substrate, mean ± SEM of three experiments. On the procedure: 90 µL of 15-LOX was pipetted into a 96-well plate quickly. The test chemical was then dissolved in DMSO in 10 µL portions at concentrations of 2.5 µM, 5.0 µM, and 10 µM and added to each well. Arachidonic acid, a 110 µL substrate, was added to start the reaction, and the plate was shaken for at least five minutes. In order to interrupt enzyme catalysis and advance the reaction, 100 µL of chromogen was added to each well and made in accordance with the manufacturer’s instructions. In blank wells, 100 µL of assay buffer (0.1 M Tris-HCl, pH 7.4) was utilized. […] The solution’s absorbance was determined at λ 490–500 nm. The percentage inhibition was calculated according to the following equation:% inhibition = [(IA − Ainhibitor sample)/IA] × 100(1) where (IA) is the 100% initial activity and (Ainhibitor sample) is the absorbance of the test sample. A dose-response curve was plotted between % inhibition and the drug concentration. The non-linear dose-response curve was used for calculating drug concentration showing 50% enzyme inhibition.

Series [1] in a line: Lipid peroxidation assay (FeCl2/H2O2-stimulated linoleic acid peroxidation). Type of series: biochemical. Particulars: mean ± SEM of three experiments.
The nature of series [2]: Hydrogen peroxide scavenging assay. It counts as biochemical. Particulars: mean ± SEM of three experiments. The protocol:
H2O2 assay is used to estimate the scavenging power of the target compounds (4–9) to H2O2.
The hydrogen peroxide (H2O2) scavenging activity of all novel synthesized compounds 3–9 was measured as previously reported (see Supplementary Materials).
1-Biological Evaluation Details: a-In-vitro Assays for biological antioxidant Activity […]
Linear regression analysis was performed to calculate drug concentration showing 50% free radical inhibition activity (IC50). All tests were performed in triplicates.
-Scavenging of hydrogen peroxide
In this method, the decay or loss of hydrogen peroxide can be quantified spectrophotometrically at 230 nm when a scavenger is incubated with it. The procedure was applied with a few changes. In phosphate buffered saline, hydrogen […]
peroxide (20 mM) solution was prepared in phosphate buffered saline (PBS, pH 7.4). In order to make different concentrations of 1 ml of the tested substances (3–9) or standards in methanol, 2 ml of hydrogen peroxide solution in PBS was added. After 10 minutes, the absorbance of H2O2 was measured at 230 nm in comparison to an ascorbic acid (AA) reference solution that contained phosphate buffer but no H2O2.
% of H2O2 scavenging = [(A control -A sample) / A control] x100. […]

Series [3] can be described thus: DPPH radical scavenging assay. It counts as biochemical. Particulars: mean ± SEM of three experiments. The protocol: The antioxidant potential of all target compounds (3–9) was determined using DPPH radical scavenging assay in comparison with ascorbic acid (AA) as the control treatment.
The mechanism of antioxidants as DPPH radical scavengers is based on their hydrogen-donation ability as hydrogen atoms or an electron transfer from the compound to the DPPH to form DPPH-H. The results of DPPH reduction are presented in Table 2, Figure 7.
The DPPH scavenging activity of all novel synthesized compounds (3–9) was measured as previously described (see Supplementary Materials).
1-Biological Evaluation Details: a-In-vitro Assays for biological antioxidant Activity
- DPPH scavenging method.
A 96-well plate was filled with 100 µL of the investigated compounds at various concentrations (12.5, 25, 50, 100, and 200 µg/mL ). The plate was then incubated at room temperature for 30 min while being protected from light by adding 100 µL of 100µM DPPH methanolic solution to each well. At a λ517 nm. the solution's absorbance was measured.
The positive control was ascorbic acid, and the negative control was DMSO. According to the following equation, the percentage of DPPH scavenging activity was determined:
% of DPPH scavenging = [(A control -A sample) / A control] x100. where A control is the absorbance of the control reaction (with all reagents except the test compound), and A sample is the absorbance of the test sample. Linear regression analysis was performed to calculate drug concentration showing 50% free radical inhibition activity (IC50). All tests were performed in triplicates. […]
In general terms: DPPH is a stable violet radical that fades when it is reduced.

Molecules are shown by their SMILES.

In turn, `O=c1[nH]c(=S)[nH]cc1S(=O)(=O)Nc1cccc(-c2csc(NN=Cc3cccc(F)c3)n2)c1` [Compound 9c, N-(3-{2-[(2E)-2(3-fluorobenzylidene)hydrazine]-1,3-thiazol-4-yl}phenyl)-4-oxo-thioxo-1,2,3,4-tetrahydropyrimidine-5-sulfonamides] displayed a melting point of 317 to 319 °C. Inhibition on Soybean 15-LOX enzyme was half-maximal at 1.95 ± 0.06 µM (IC50). The “15-LOX inhibitory activity relative to quercetin” value at Soybean 15-LOX enzyme (fold that of quercetin) is recorded as 1.84 fold. In addition, in series [1], the “Lipid Peroxidation IC50” value is 20.5 ± 1.48 µg/mL. The “H2O2 IC50” value in series [2] worked out at 16.0 ± 1.20 µg/mL. The “DPPH IC50” value in series [3] is 10.0 ± 0.83 µg/mL.

Regarding `CC(=O)c1cccc(NS(=O)(=O)c2c[nH]c(=S)[nH]c2=O)c1` [Compound 3, N-(3-Acetylphenyl)-4-oxo-2-thioxo-1,2,3,4-tetrahydropyrimidine-5-sulfonamide], the melting point lay within 318 to 320 °C. Moreover, the “Lipid Peroxidation IC50” value in series [1] was more than 100 µg/mL. For the same compound, the “H2O2 IC50” value in series [2] was more than 100 µg/mL. Besides, the “DPPH IC50” value in series [3] is 80.0 ± 0.70 µg/mL.

In turn, `O=c1[nH]c(=S)[nH]cc1S(=O)(=O)Nc1cccc(-c2csc(NN=Cc3cccc([N+](=O)[O-])c3)n2)c1` [Compound 9a, N-(3-{2-[(2E)-2(3-nitrobenzylidene)hydrazine]-1,3-thiazol-4-yl}phenyl)-4-oxo-thioxo-1,2,3,4-tetrahydropyrimidine-5-sulfonamides] returned a melting point of 316 to 318 °C. Further, it took 2.9 ± 0.08 µM to reach half-maximal inhibition against Soybean 15-LOX enzyme (IC50). In addition, the “Lipid Peroxidation IC50” value in series [1] came out at 22.0 ± 1.40 µg/mL. The “H2O2 IC50” value in series [2] was found to be 20.0 ± 1.40 µg/mL. Also, in series [3], the “DPPH IC50” value was determined as 15.0 ± 1.25 µg/mL.

In turn, `Cc1cccc(/C=C/C(=O)c2cccc(NS(=O)(=O)c3c[nH]c(=S)[nH]c3=O)c2)c1` [Compound 4d, N-{3-[(2E)-3-(3-methylphenyl)prop-2-enoyl]phenyl}-4-oxo-2-thioxo-1,2,3,4-tetra hydropyrimidine-5-sulfonamide] had a melting point of 287 to 289 °C. In series [1], the “Lipid Peroxidation IC50” value is more than 100 µg/mL. For the same compound, the “H2O2 IC50” value in series [2] turned out to be 80.0 ± 0.70 µg/mL. Moreover, the “DPPH IC50” value in series [3] turned out to be 40.0 ± 1.70 µg/mL.

`O=C(/C=C/c1cccc(F)c1)c1cccc(NS(=O)(=O)c2c[nH]c(=S)[nH]c2=O)c1` [Compound 4c, N-{3-[(2E)-3-(3-fluorophenyl)prop-2-enoyl]phenyl}-4-oxo-2-thioxo-1,2,3,4-tetra hydropyrimidine-5-sulfonamide]: the melting point lay in the range of 270 to 272 °C. Moreover, in series [1], the “Lipid Peroxidation IC50” value is reported as more than 100 µg/mL. For the same compound, the “H2O2 IC50” value in series [2] is given as more than 100 µg/mL. In series [3], the “DPPH IC50” value is listed as 43.0 ± 0.50 µg/mL.

On to `Cc1cccc(-c2cc(-c3cccc(NS(=O)(=O)c4c[nH]c(=S)[nH]c4=O)c3)nc(N)c2C#N)c1` [Compound 7d, N-{3-[6-amino-5-cyano-4-(3-methylphenyl)pyridine-2-yl]phenyl}-4-oxo-2-thioxo-1,2,3,4-tetrahydropyrimidine-5-sulfonamides], for which the melting point lay in the range of 264 to 266 °C. The same compound displayed an IC50 at Soybean 15-LOX enzyme of 6.6 ± 0.05 µM. The “Lipid Peroxidation IC50” value in series [1] is recorded as 36.4 ± 1.33 µg/mL. In series [2], the “H2O2 IC50” value was 23.9 ± 1.34 µg/mL. For the same compound, the “DPPH IC50” value in series [3] was 17.0 ± 1.63 µg/mL.

Take `N#Cc1c(-c2cccc(F)c2)cc(-c2cccc(NS(=O)(=O)c3c[nH]c(=S)[nH]c3=O)c2)[nH]c1=O` [Compound 6c, N-{3-[5-cyano-4-(3-fluorophenyl)-6-oxo-1,6-dihydropyridin-2-yl]phenyl}-4-oxo-2-thioxo-1,2,3,4-tetrahydropyrimidine-5-sulfonamide]: the melting point was in the range of 287 to 289 °C. In addition, on Soybean 15-LOX enzyme, the 50% inhibitory concentration (IC50) was 7.8 ± 0.02 µM. Further, in series [1], the “Lipid Peroxidation IC50” value is given as 39.0 ± 1.46 µg/mL. The “H2O2 IC50” value in series [2] is 29.0 ± 1.03 µg/mL. The “DPPH IC50” value in series [3] came out at 21.7 ± 0.7 µg/mL.

For the compound `N#Cc1c(-c2cccc(Cl)c2)cc(-c2cccc(NS(=O)(=O)c3c[nH]c(=S)[nH]c3=O)c2)nc1N` [Compound 7b, N-{3-[6-amino-5-cyano-4-(3-chlorophenyl)pyridine-2-yl]phenyl}-4-oxo-2-thioxo-1,2,3,4-tetrahydropyrimidine-5-sulfonamides], the melting point is 257 to 259 °C. This compound registered an IC50 against Soybean 15-LOX enzyme of 6.7 ± 0.01 µM. In addition, the “Lipid Peroxidation IC50” value in series [1] is recorded as 37.3 ± 1.3 µg/mL. Besides, in series [2], the “H2O2 IC50” value worked out at 25.0 ± 1.35 µg/mL. In series [3], the “DPPH IC50” value came to 19.50 ± 1.06 µg/mL.

`O=C(C=Cc1cccc([N+](=O)[O-])c1)c1cccc(NS(=O)(=O)c2c[nH]c(=S)[nH]c2=O)c1` [Compound 4a, N-{3-[(2E)-3-(3-nitrophenyl)prop-2-enoyl]phenyl}-4-oxo-2-thioxo-1,2,3,4-tetrahydro pyrimidine-5-sulfonamide] yielded a melting point of 240 to 242 °C. Moreover, the “Lipid Peroxidation IC50” value in series [1] was more than 100 µg/mL. Also, the “H2O2 IC50” value in series [2] is listed as more than 100 µg/mL. In addition, the “DPPH IC50” value in series [3] stood at 50.5 ± 0.79 µg/mL.

Take `O=C(CBr)c1cccc(NS(=O)(=O)c2c[nH]c(=S)[nH]c2=O)c1` [Compound 8, N-[3-(bromoacetyl)phenyl]-4-oxo-2-thioxo-1,2,3,4-tetrahydropyrimidine-5-sulfonamide]: the melting point fell in the range of 305 to 307 °C. The “Lipid Peroxidation IC50” value in series [1] is more than 100 µg/mL. In series [2], the “H2O2 IC50” value is more than 100 µg/mL. The “DPPH IC50” value in series [3] is on record as 70.27 ± 1.17 µg/mL.

Regarding `O=C1O[C@H]([C@@H](O)CO)C(O)=C1O` [Ascorbic acid, reference compound], the “Lipid Peroxidation IC50” value in series [1] came to 36.0 ± 1.30 µg/mL. Besides, the “H2O2 IC50” value in series [2] was determined as 23.0 ± 1.37 µg/mL. In addition, the “DPPH IC50” value in series [3] worked out at 12.80 ± 0.90 µg/mL.

`O=C(/C=C/c1cccc(Cl)c1)c1cccc(NS(=O)(=O)c2c[nH]c(=S)[nH]c2=O)c1` [Compound 4b, N-{3-[(2E)-3-(3-chlorophenyl)prop-2-enoyl]phenyl}-4-oxo-2-thioxo-1,2,3,4-tetra hydropyrimidine-5-sulfonamide]: the melting point lay in the range of 283 to 285 °C. The “Lipid Peroxidation IC50” value in series [1] is on record as more than 100 µg/mL. In addition, the “H2O2 IC50” value in series [2] came out at 95.0 ± 1.40 µg/mL. Besides, the “DPPH IC50” value in series [3] was determined as 44.3 ± 1.67 µg/mL.

The term melting point denotes the temperature of the solid-liquid transition. As usually defined, the IC50 is the concentration that inhibits the measured activity by half.
